One data set has as its system ALOMY. Briefly: Herbicidal activity, test type PE. Conditions: TEST-TYP PE, 320 G/HA. The format is in vivo.
The test system of data set [1] is AMARE. As to the kind of experiment: Herbicidal activity, test type PE. The format is in vivo. Conditions: TEST-TYP PE; for pest or weed control at 320 g/ha: Amaranthus retroflexus, read-out: herbizide Wirkung AMARE.
In a further data set the test system is STEME. As to the kind of experiment: Herbicidal activity, test type PE. The format is in vivo. Particulars: TEST-TYP PE, read-out: herbizide Wirkung STEME.
In another data set the test system is ECHCG. As to the kind of experiment: Herbicidal activity, test type PE. It is filed as in vivo. Conditions: TEST-TYP PE, 320 G/HA.
Data set [2] is described as follows: logP by HPLC on reversed-phase columns (C 18), EEC Directive 79/831 Annex V.A8. It is filed as physicochemical. Conditions: c18 reversed-phase hplc, reversed-phase (C 18), read-out: log p. The text has this: Die Messung der logP Werte erfolgte gemäß EEC Directive 79/831 Annex V.A8 durch HPLC (High Performance Liquid Chromatography) an reversed-phase Säulen (C 18), mit der nachfolgenden Methode: […]

Data set [3] has as its system VIOTR. As to the kind of experiment: Herbicidal activity, test type PE. The format is in vivo. Conditions: TEST-TYP PE; for pest or weed control at 320 g/ha: read-out: herbizide Wirkung VIOTR.
Data set [4] deals with VERPE. Briefly: Herbicidal activity, test type PE. The format is in vivo. Conditions: TEST-TYP PE, read-out: herbizide Wirkung VERPE.
A further data set has as its system MATIN. Briefly: Herbicidal activity, test type PE. The format is in vivo. Particulars: TEST-TYP PE; for pest or weed control at 320 g/ha: read-out: herbizide Wirkung MATIN.
The next data set relates to SETVI. Briefly: Herbicidal activity, test type PE. It is filed as in vivo. Particulars: TEST-TYP PE, read-out: herbizide Wirkung SETVI.
In a further data set the test system is LOLMU. As to the kind of experiment: Herbicidal activity, test type PE. It is filed as in vivo. Particulars: TEST-TYP PE, read-out: herbizide Wirkung LOLMU.
The next data set relates to Tetranychus urticae. As to the kind of experiment: Tetranychus test, OP-resistant (TETRUR spray treatment). It is filed as in vivo. Conditions: topical, bean leaf discs (Phaseolus vulgaris), read-out: Wirkung. From the text:
Zur Herstellung einer zweckmäßigen Wirkstoffzubereitung vermischt man 1 Gewichtsteil Wirkstoff mit den angegebenen Mengen Lösungsmittel und Emulgator und verdünnt das Konzentrat mit emulgatorhaltigem Wasser auf die gewünschte Konzentration.
Bohnenblattscheiben (Phaseolus vulgaris), die von allen Stadien der Gemeinen Spinnmilbe (Tetranychus urticae) befallen sind, werden mit einer Wirkstoffzubereitung der gewünschten Konzentration gespritzt.
Nach der gewünschten Zeit wird die Wirkung in % bestimmt. Dabei bedeutet 100 %, dass alle Spinnmilben abgetötet wurden; 0 % bedeutet, dass keine Spinnmilben abgetötet wurden.

Data set [5] concerns VIOTR. As to the kind of experiment: Herbicidal activity, test type PO. The format is in vivo. Conditions: TEST-TYP PO, 80 G/HA.
The test system of data set [6] is AMARE. As to the kind of experiment: Herbicidal activity, test type PO. It is filed as in vivo. Conditions: TEST-TYP PO, 80 G/HA.
The test system of data set [7] is VERPE. As to the kind of experiment: Herbicidal activity, test type PO. The format is in vivo. Conditions: TEST-TYP PO, 80 G/HA.
A further data set has as its system CYPES. Briefly: Herbicidal activity, test type PE. Conditions: TEST-TYP PE, 320 G/HA. The format is in vivo.
The subject of another data set is PHBPU. Briefly: Herbicidal activity, test type PO. Conditions: TEST-TYP PO, 80 G/HA. The format is in vivo.

In the case of `CCN(C)C=Nc1ncc(Cl)cc1-c1ccc(F)c(C(F)(F)F)c1` [compound 14], the “herbizide Wirkung ALOMY” value with ALOMY turned out to be 90. The pest or weed control at 320 g/ha in the data set on AMARE [1] is 90%; in the data set on STEME, 85%; in the data set with VIOTR [3], 90%; in the data set with VERPE [4], 90%; in the data set with MATIN, 100%; in the data set on SETVI, 100%. Further, the pest or weed control at 320 g/ha with LOLMU turned out to be 100%. Besides, in the data set with ECHCG, the “herbizide Wirkung ECHCG” value was determined as 80. Besides, the chromatographic logP in data set [2] came to 2.21.
For the compound `CCN(C)C=Nc1ncc(Cl)cc1-c1ccc(C(F)(F)F)c(Cl)c1` [compound 24], in [2], the chromatographic logP came to 2.88. The mortality at 500 g/ha, 500 g/ha in the data set on Tetranychus urticae was more than 80%.
As for `CCN(C)C=Nc1ncc(Cl)cc1-c1cccc(C(F)(F)F)c1` [compound 33], the “herbizide Wirkung ALOMY” value in the data set with ALOMY came to 80. For the same compound, the “herbizide Wirkung VIOTR” value with VIOTR [5] is 90. The “herbizide Wirkung AMARE” value in the data set on AMARE [6] worked out at 80. The pest or weed control at 320 g/ha with AMARE [1] was 100%; in the data set with STEME, 80%; in the data set with VIOTR [3] it was 100%; with VERPE [4] it was 100%; with MATIN it was 80%; in the data set on SETVI, 80%. Besides, the mortality at 500 g/ha, 500 g/ha in the data set with Tetranychus urticae was more than 80%. Besides, in the data set on VERPE [7], the “herbizide Wirkung VERPE” value turned out to be 80.
For `CCN(C=Nc1ncc(Cl)cc1-c1cccc(C(F)(F)F)c1)CC` [compound 36], in the data set on CYPES, the “herbizide Wirkung CYPES” value is 100. Further, the pest or weed control at 320 g/ha with VIOTR [3] came out at 100%; with VERPE [4], 90%; with SETVI, 90%; in the data set on LOLMU, 80%.
As to `FC(F)(F)c1cccc(-c2cc(Cl)cnc2N=CN2CCCC2)c1` [compound 38], the pest or weed control at 320 g/ha with AMARE [1] was 80%; in the data set with SETVI, 90%. Moreover, the “herbizide Wirkung CYPES” value in the data set on CYPES stood at 100.
For `CCN(C)C=Nc1ncc(-c2ccc(F)c(C(F)(F)F)c2)cc1C` [compound 66], in the data set on ALOMY, the “herbizide Wirkung ALOMY” value was found to be 80. For the same compound, the “herbizide Wirkung VIOTR” value in the data set with VIOTR [5] is on record as 80. Further, the pest or weed control at 320 g/ha in the data set on AMARE [1] stood at 90%; in the data set on STEME it was 90%; in the data set with VIOTR [3], 90%; with VERPE [4] it was 90%; in the data set on MATIN, 90%; in the data set on SETVI, 100%. The pest or weed control at 320 g/ha with LOLMU was 90%. The “herbizide Wirkung ECHCG” value in the data set with ECHCG turned out to be 90. Besides, the “herbizide Wirkung PHBPU” value with PHBPU was found to be 80.
As to `Cc1cc(-c2ccc(F)c(C(F)(F)F)c2)cnc1N=CN(C)C` [compound 181], the “herbizide Wirkung AMARE” value in the data set on AMARE [6] is 80; with AMARE [1] (320 G/HA), 100. The “herbizide Wirkung VIOTR” value with VIOTR [3] (320 G/HA) worked out at 90. In addition, the “herbizide Wirkung VERPE” value in the data set with VERPE [7] was 80. Also, the “herbizide Wirkung MATIN” value with MATIN (320 G/HA) is recorded as 90. The “herbizide Wirkung PHBPU” value with PHBPU was 90.
